“And” between values parts separate entries of the source, which are not always exact repeats. Equal values may be shown once.
What was measured:
[1] = molecular target: T1, Amine oxidase [flavin-containing] A (Homo sapiens, UniProt P21397); assay: Inhibition of MAO-A (unknown origin)
T1 sequence (P21397 whole entry): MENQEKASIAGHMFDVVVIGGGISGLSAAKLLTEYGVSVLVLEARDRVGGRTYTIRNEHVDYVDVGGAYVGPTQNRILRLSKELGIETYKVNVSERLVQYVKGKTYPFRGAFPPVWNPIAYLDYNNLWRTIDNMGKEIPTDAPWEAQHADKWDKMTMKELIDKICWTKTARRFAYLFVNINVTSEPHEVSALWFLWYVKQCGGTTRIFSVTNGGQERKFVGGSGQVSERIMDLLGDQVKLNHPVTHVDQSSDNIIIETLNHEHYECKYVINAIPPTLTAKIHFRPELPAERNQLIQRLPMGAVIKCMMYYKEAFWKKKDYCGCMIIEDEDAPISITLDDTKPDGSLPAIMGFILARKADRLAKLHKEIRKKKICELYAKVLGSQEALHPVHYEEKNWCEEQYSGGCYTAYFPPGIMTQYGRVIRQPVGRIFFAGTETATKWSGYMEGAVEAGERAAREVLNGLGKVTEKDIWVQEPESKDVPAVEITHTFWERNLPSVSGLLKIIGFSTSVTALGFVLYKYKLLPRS

[2] = molecular target: 5-hydroxytryptamine receptor 2B (Rattus norvegicus, UniProt P30994); assay: Displacement of [3H]-ketanserin from rat 5-HT2B expressed in mouse NIH/3T3 cells assessed as inhibition constant by Cheng-Prusoff equation analysis; type: cell-based
[3] = molecular target: 5-hydroxytryptamine receptor 2B (Homo sapiens, UniProt P41595); assay: Binding affinity to 5-HT2B (unknown origin) assessed as equilibrium binding constant
[4] = molecular target: T2, Gamma-aminobutyric acid receptor subunit alpha-5 (Homo sapiens, UniProt P31644); assay: Binding affinity to human recombinant GABAA alpha5 receptor assessed as inhibition constant incubated for 1 hrs by liquid scintillation counting analysis
T2 sequence (P31644 whole entry): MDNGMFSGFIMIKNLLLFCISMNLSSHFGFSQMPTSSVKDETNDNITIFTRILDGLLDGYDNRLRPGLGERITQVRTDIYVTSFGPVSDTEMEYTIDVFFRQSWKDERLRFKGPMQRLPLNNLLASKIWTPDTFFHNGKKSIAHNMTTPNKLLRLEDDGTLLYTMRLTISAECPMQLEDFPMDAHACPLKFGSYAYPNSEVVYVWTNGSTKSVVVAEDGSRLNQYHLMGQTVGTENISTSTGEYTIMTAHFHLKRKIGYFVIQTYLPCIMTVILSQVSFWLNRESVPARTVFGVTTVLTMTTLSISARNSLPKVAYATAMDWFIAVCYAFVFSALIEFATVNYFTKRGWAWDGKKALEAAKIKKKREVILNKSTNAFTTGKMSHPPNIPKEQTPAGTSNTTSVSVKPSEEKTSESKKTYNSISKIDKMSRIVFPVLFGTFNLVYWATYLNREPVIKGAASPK

[5] = molecular target: Gamma-aminobutyric acid receptor subunit alpha-6 (Homo sapiens, UniProt Q16445); assay: Binding affinity to human recombinant GABAA alpha6 receptor assessed as inhibition constant incubated for 1 hrs by liquid scintillation counting analysis
[6] = molecular target: T3, Gamma-aminobutyric acid receptor subunit alpha-3 (Homo sapiens, UniProt P34903); assay: Binding affinity to human recombinant GABAA alpha3 receptor assessed as inhibition constant incubated for 1 hrs by liquid scintillation counting analysis
T3 sequence (P34903 whole entry): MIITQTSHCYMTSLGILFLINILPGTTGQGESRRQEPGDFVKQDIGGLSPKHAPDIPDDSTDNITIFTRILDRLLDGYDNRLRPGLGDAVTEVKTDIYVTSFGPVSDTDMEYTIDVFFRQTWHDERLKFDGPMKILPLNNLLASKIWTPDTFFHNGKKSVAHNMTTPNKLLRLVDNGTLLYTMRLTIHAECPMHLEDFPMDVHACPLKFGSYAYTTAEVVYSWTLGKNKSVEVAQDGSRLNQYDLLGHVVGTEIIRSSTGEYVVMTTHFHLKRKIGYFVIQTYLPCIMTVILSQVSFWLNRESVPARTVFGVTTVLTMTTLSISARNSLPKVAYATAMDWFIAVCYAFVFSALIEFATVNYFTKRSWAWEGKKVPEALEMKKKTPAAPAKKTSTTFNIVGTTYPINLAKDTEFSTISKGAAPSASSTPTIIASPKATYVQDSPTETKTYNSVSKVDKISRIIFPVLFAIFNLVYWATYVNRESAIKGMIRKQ

[7] = molecular target: T4, Gamma-aminobutyric acid receptor subunit alpha-1 (Homo sapiens, UniProt P14867); assay: Binding affinity to human recombinant GABAA alpha1 receptor assessed as inhibition constant incubated for 1 hrs by liquid scintillation counting analysis
T4 sequence (P14867 whole entry): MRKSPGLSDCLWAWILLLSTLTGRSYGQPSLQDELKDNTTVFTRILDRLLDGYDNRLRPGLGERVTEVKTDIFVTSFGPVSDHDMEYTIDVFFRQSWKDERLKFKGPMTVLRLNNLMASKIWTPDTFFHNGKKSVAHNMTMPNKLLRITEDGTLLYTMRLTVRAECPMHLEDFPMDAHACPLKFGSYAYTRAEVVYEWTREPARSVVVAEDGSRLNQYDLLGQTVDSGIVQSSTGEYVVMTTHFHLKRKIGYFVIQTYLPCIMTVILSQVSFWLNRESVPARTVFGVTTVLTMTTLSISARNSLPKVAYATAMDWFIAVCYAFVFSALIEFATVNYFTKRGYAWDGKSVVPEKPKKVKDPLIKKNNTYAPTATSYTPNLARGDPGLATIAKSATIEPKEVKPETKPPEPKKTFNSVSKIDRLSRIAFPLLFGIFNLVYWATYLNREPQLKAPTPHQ

[8] = molecular target: Gamma-aminobutyric acid receptor subunit alpha-4 (Homo sapiens, UniProt P48169); assay: Binding affinity to human recombinant GABAA alpha4 receptor assessed as inhibition constant incubated for 1 hrs by liquid scintillation counting analysis
Acetylcholinesterase [9] = molecular target: T5, Acetylcholinesterase (Homo sapiens, UniProt P22303); assay: Inhibition of AChE (unknown origin) using acetylthiocholine iodide as substrate incubated for 20 mins followed by substrate addition by Ellman's method
Cholinesterase [10] = molecular target: T6, Cholinesterase (Homo sapiens, UniProt P06276); assay: Inhibition of BuChE (unknown origin) using acetylthiocholine iodide as substrate incubated for 20 mins followed by substrate addition by Ellman's method
[11] = molecular target: GABA-A receptor; anion channel; assay: Inhibition of GABAA receptor (unknown origin); type: protein-complex assay, Homo sapiens
Acetylcholinesterase [12] = molecular target: T5, Acetylcholinesterase; assay: Inhibition of AChE (unknown origin) incubated for 40 mins by Ellman's method
[13] = molecular target: T7, Gamma-aminobutyric acid receptor subunit alpha-2 (Homo sapiens, UniProt P47869); assay: Binding affinity to human recombinant GABAA alpha2 receptor assessed as inhibition constant incubated for 1 hrs by liquid scintillation counting analysis
T7 sequence (P47869 whole entry): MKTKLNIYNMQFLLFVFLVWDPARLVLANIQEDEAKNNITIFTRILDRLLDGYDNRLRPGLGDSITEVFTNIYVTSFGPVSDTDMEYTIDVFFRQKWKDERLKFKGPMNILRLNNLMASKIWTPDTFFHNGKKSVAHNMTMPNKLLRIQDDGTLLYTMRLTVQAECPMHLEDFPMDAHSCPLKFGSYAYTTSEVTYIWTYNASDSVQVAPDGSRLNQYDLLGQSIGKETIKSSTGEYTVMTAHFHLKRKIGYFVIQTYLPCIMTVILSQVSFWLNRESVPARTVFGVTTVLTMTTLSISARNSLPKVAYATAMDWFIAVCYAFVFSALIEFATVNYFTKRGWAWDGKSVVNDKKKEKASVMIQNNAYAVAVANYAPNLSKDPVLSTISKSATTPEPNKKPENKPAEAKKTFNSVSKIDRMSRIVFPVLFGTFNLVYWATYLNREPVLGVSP

[14] = molecular target: GABA-A receptor; anion channel; assay: Displacement of [3H]flunitrazepam from GABAA (unknown origin ) receptor by radioligand binding assay; type: protein-complex assay, Homo sapiens
Cholinesterase [15] = molecular target: T6, Cholinesterase; assay: Inhibition of BuChE (unknown origin)

Chain of 5-hydroxytryptamine receptor 2B (Homo sapiens, UniProt P41595) (P41595 whole entry): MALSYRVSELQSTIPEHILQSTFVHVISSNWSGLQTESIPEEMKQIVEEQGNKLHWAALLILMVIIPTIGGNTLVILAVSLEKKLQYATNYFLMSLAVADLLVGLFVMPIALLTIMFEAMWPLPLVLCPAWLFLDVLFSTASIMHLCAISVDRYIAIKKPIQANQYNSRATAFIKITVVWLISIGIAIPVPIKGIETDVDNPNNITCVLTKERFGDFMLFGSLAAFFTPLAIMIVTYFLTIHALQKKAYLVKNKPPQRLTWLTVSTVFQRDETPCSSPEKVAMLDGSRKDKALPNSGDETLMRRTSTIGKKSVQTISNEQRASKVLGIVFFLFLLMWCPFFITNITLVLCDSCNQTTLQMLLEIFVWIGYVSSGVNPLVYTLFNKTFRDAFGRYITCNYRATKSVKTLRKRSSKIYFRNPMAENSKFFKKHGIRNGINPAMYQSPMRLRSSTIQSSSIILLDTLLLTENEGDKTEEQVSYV
T5 sequence (P22303 whole entry): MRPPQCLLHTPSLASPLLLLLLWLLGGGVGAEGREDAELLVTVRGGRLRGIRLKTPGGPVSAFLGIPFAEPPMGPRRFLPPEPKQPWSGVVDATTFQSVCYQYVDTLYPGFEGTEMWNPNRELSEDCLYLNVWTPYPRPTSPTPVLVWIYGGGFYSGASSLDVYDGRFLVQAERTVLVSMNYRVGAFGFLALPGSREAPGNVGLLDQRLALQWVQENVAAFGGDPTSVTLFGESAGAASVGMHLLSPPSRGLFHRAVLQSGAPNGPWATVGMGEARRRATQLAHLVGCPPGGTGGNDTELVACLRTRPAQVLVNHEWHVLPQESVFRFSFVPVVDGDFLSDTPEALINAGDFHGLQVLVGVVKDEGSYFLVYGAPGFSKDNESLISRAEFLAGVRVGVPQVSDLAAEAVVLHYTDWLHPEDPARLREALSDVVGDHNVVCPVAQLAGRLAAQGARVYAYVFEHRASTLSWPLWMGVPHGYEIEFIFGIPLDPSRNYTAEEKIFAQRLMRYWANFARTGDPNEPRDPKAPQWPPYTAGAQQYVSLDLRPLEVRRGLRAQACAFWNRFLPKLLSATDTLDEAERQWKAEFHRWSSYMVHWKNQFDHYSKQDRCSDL
T6 sequence (P06276 whole entry): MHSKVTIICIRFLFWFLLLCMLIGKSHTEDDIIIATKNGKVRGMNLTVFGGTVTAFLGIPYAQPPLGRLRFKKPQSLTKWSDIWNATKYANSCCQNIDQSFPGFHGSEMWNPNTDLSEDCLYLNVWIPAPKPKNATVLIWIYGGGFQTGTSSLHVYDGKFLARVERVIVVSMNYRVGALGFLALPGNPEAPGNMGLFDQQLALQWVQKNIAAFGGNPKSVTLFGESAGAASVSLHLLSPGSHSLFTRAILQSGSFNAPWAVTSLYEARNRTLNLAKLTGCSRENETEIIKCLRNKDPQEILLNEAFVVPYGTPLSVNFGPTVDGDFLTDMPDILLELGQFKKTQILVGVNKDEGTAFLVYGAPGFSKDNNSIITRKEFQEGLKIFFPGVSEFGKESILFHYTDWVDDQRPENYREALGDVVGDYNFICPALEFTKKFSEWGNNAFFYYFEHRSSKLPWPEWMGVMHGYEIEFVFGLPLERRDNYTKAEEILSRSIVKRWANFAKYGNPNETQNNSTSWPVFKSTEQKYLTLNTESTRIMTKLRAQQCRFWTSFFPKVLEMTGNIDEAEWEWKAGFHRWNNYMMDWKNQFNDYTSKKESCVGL
Chain of 5-hydroxytryptamine receptor 2B (Rattus norvegicus, UniProt P30994) (P30994 whole entry): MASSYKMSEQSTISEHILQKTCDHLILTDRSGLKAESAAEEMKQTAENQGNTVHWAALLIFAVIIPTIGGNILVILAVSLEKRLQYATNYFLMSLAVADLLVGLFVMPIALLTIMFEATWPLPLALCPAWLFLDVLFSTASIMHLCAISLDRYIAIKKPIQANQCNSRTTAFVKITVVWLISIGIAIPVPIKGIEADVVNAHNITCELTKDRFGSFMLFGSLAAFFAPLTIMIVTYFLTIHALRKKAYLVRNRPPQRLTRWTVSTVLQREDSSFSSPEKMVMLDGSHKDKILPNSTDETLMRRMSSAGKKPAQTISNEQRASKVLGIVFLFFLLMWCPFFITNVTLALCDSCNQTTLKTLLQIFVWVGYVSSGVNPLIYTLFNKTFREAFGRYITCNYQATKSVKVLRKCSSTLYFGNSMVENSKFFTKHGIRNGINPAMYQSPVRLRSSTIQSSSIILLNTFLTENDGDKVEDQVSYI
Chain of Gamma-aminobutyric acid receptor subunit alpha-4 (P48169 whole entry): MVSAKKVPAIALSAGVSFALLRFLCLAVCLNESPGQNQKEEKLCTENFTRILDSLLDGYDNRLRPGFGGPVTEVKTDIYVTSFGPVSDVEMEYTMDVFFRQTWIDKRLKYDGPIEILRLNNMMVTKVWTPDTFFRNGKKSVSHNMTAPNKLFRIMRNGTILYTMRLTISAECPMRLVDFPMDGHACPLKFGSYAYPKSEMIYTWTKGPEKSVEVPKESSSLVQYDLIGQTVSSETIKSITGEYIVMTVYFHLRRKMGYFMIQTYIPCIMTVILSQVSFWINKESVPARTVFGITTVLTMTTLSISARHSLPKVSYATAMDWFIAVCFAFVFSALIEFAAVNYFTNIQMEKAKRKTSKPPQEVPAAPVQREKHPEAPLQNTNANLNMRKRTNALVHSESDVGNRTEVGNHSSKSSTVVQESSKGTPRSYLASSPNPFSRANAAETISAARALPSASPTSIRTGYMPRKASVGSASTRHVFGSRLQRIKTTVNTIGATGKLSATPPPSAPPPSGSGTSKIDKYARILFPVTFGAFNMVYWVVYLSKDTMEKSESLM
Chain of Gamma-aminobutyric acid receptor subunit alpha-6 (Q16445 whole entry): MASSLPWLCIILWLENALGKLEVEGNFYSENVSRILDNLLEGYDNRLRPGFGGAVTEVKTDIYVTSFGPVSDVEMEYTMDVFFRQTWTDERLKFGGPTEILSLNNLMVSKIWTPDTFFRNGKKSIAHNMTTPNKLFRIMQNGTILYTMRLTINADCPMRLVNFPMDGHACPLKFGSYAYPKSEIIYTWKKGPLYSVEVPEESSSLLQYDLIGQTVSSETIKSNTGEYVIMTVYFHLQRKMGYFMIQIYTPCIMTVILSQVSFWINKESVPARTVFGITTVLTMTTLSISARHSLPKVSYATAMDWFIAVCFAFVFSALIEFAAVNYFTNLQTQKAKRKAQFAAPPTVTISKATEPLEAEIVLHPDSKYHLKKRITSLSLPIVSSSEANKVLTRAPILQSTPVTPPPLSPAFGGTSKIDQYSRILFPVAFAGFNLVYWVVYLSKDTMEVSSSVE

## Cc1nccc2c1[nH]c1cc(OCCc3ccccc3)ccc12
[1]
  IC50: 5 nM

## COc1ccc(CC2NCCc3c2[nH]c2ccc(C)cc32)c(Br)c1OC (centres undefined)
[2]
  Ki: 0.2 nM
[3]
  Kb: < 0.3 nM

## Cc1nccc2c1[nH]c1cc(CO)ccc12
[1]
  IC50: 40 nM

## COc1ccc(CC2NCCc3c2[nH]c2c(C)cc(C)cc32)cc1OC (centres undefined)
[2]
  Ki: 0.2 nM
[3]
  Kb: < 0.3 nM and 0.08 nM

## C#Cc1ccc2[nH]c3cnc(C(=O)OC(C)(C)C)cc3c2c1
[4]
  Ki: 210 nM
[5]
  Ki: 2000 nM
[6]
  Ki: 100 nM
[7]
  Ki: 1 nM
[8]
  Ki: 2000 nM

## c1ccc2c(c1)CN1CCc3c([nH]c4ccccc34)C1=N2
Acetylcholinesterase [9]
  IC50: 3400 nM
Cholinesterase [10]
  IC50: 500 nM

## COCc1c(-c2cc(C)on2)ncc2[nH]c3ccc4oc(C(C)C)nc4c3c12
[11]
  IC50: 0.9 nM

## c1ccc(COc2ccc3c(c2)[nH]c2c3ncc3[nH]c4ccccc4c32)cc1
[11]
  IC50: > 4000 nM

## CCCCCCCNC(=O)Oc1ccc2c(c1)CN1CCc3c([nH]c4ccccc34)C1N2C (centres undefined)
Acetylcholinesterase [9]
  IC50: > 10000 nM
Cholinesterase [10]
  IC50: 77 nM

## CCc1cccc2[nH]c3c(c12)CCNC3Cc1ccc(OC)c(OC)c1 (centres undefined)
[2]
  Ki: 0.1 nM
[3]
  Kb: < 0.3 nM

## O=C(CN1CCCCC1)Nc1ccc2nc3c4[nH]c5ccccc5c4ccn3c(=O)c2c1
Acetylcholinesterase [9]
  IC50: 10 nM
Cholinesterase [10]
  IC50: 5400 nM

## O=C1c2ccccc2-[n+]2ccc3c([nH]c4ccccc43)c21 [FASCAPLYSIN]
Acetylcholinesterase [9]
  IC50: 1500 nM
Cholinesterase [10]
  IC50: 90000 nM

## COc1ccc(CC2NCCc3c2[nH]c2c(F)cc(F)cc32)cc1OC (centres undefined)
[2]
  Ki: 0.2 nM
[3]
  Kb: < 0.3 nM

## COc1ccc(CC2NCCc3c2[nH]c2cccc(I)c32)cc1OC (centres undefined)
[2]
  Ki: 0.1 nM
[3]
  Kb: < 0.3 nM

## COCc1ccc2c(c1)[nH]c1c(C)nccc12
[1]
  IC50: 30 nM

## O=[N+]([O-])c1ccc2[nH]c3cnc4c5ccccc5[nH]c4c3c2c1
[11]
  IC50: 4 nM

## Cn1c2c(c3ccccc31)CC[N+](c1ccc(Br)cc1Br)=C2
Acetylcholinesterase [12]
  IC50: > 10000 nM

## Cn1c2c(c3ccccc31)CC[N+](c1ccc(Br)cc1)=C2
Acetylcholinesterase [12]
  IC50: 1500 nM

## CCCOc1cc2c(cn1)[nH]c1ccccc12
[4]
  Ki: 590 nM
[5]
  Ki: > 1000 nM
[6]
  Ki: 69 nM
[8]
  Ki: 1000 nM
[13]
  Ki: 52 nM
[14]
  IC50: 3 nM

## Cn1c2ccccc2c2cc[n+](-c3ccc(Br)cc3)cc21
Acetylcholinesterase [12]
  IC50: 240 nM
Cholinesterase [15]
  IC50: 32000 nM and 116000 nM

## COc1ccc(CC2NCCc3c2[nH]c2ccc(C)cc32)c(Cl)c1OC (centres undefined)
[2]
  Ki: 0.2 nM
[3]
  Kb: < 0.3 nM

## O=C(CCN1CCCC1)Nc1ccc2c(c1)CN1CCc3c([nH]c4ccccc34)C1=N2
Acetylcholinesterase [9]
  IC50: 29 nM
Cholinesterase [10]
  IC50: 840 nM

## Cc1nccc2c1[nH]c1cc(OCC(C)C)ccc12
[1]
  IC50: 5 nM

Source: ChEMBL document CHEMBL5233266, “β-Carboline as a Privileged Scaffold for Multitarget Strategies in Alzheimer's Disease Therapy” (J Med Chem, 2021)
